# Results reported in ChEMBL document CHEMBL1127212, “Preparation and evaluation of the antiaggregating and vasodilating activities of the novel 3-nitro-4(3H)-quinazolinone derivatives” (Bioorg Med Chem Lett, 1993).
# Experiments:
# Format in all cases: functional
# [1] = species on record: Oryctolagus cuniculus; test: Tested for vasodilating activity using a transverse strip preparation of rabbit thoracic aorta
# [2] = species on record: Oryctolagus cuniculus; test: Tested in vitro for inhibition of aggregation induced by Collagen in rabbit platelet rich plasma at the dose of 10 ug/ml
# [3] = species on record: Oryctolagus cuniculus; test: Tested in vitro for inhibition of aggregation induced by adenosine diphosphate (ADP) in rabbit platelet rich plasma at the dose of […]
# [4] = species on record: Oryctolagus cuniculus; test: Tested in vitro for inhibition of aggregation induced by arachidonic acid in rabbit platelet rich plasma at the dose of 125 uM
# [5] = species on record: Oryctolagus cuniculus; test: Tested for inhibition of aggregation induced by arachidonic acid in rabbit platelet rich plasma in Vitro at the dose of 125 uM
# [6] = species on record: Oryctolagus cuniculus; test: Tested for inhibition of aggregation induced by Collagen in rabbit platelet rich plasma in vitro at the dose of 10 ug/ml
# [7] = species on record: Oryctolagus cuniculus; test: Tested for inhibition of aggregation induced by adenosine diphosphate (ADP) in rabbit platelet rich plasma in vitro at the dose of […]
molecule,measurement,setting,value
SODIUM NITROPRUSSIDE [listing 1 of 2 here],pD2,[1],4.08
CC(=O)OC1N([N+](=O)[O-])C(=O)c2cc(Cl)ccc2N1[N+](=O)[O-] (stereo unspecified),IC50,"[2]; Oryctolagus cuniculus, Plasma",52 µM
same,pD2,[1],5.4
same,IC50,"[3]; Oryctolagus cuniculus, Plasma",46 µM
same,IC50,[4],40 µM
SODIUM NITROPRUSSIDE [listing 2 of 2 here],IC50,[2],< 1000 µM
same,IC50,[3],95 µM
CC(=O)OC1N([N+](=O)[O-])C(=O)c2ccccc2N1[N+](=O)[O-] (stereo unspecified),IC50,[5],50 µM
same,IC50,[6],52 µM
same,pD2,[1],5.36
same,IC50,[7],48 µM
